Data on eight compounds can be found in patent US20220323406A1, “METHODS AND COMPOSITIONS FOR DIFFERENTIATING STEM CELLS” (Massachusetts Institute of Technology, priority 2019, published 2022).

Where a name gives a salt, the structure may show the parent alone.

Experiment [1] has as its system ENR+CD organoids (ISC to Paneth cell differentiation). Kind of experiment: Primary screen: basal (non-stimulated) lysozyme secretion LYZ.NS, 2.5-D 384-well ENR+CD organoid differentiation. It is filed as cell-based, mouse. As to conditions: primary screen; for Z.LYZ.NS: standard z score. The source says:
(§1) High-throughput screening.

The test system is the same in experiment [2]. Nature of the experiment: Primary screen: CCh-stimulated lysozyme secretion LYZ.S, 2.5-D 384-well ENR+CD organoid differentiation. It is filed as cell-based, mouse. The conditions noted are these: primary screen.
Excerpt: as §1

The next experiment concerns ENR+CD organoids. Kind of experiment: Primary screen: ATP (CellTiter-Glo 3D, CTG) cell number/viability, 2.5-D 384-well ENR+CD organoids.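 On all read-outs here: compounds given at plating and again on day 3 over a 6-day differentiation from ENR+CV stem-cell-enriched precursors, ATP measured on day 6, plate median as control.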 As to conditions: primary screen; for Z.CTG: standard z score. (In general: In ATP-based viability assays light output follows the ATP content of the culture.)
[3] abbreviates: dose 0.08 uM, FC relative to plate median.
Where [4] appears, read: dose 0.40 uM, FC relative to plate median.
The mark [5] stands for this setting: dose 2.00 uM, FC relative to plate median.
The mark [6] stands for this setting: dose 10.00 uM, FC relative to plate median.

In the case of `Nc1cccc(-c2cc3c(Oc4cccc(O)c4)ncnc3[nH]2)c1` [TWS119], the Dose.FC.LYZ.NS in experiment [1] (dose 0.08 uM) is recorded as 0.094 log2 fold change; in experiment [1] (dose 0.40 uM), 0.038 log2 fold change; in experiment [1] (dose 2.00 uM), 0.035 log2 fold change; in experiment [1] (dose 10.00 uM) it was −0.233 log2 fold change. Besides, the “Z.LYZ.NS (standard z score)” value in experiment [1] (dose 0.08 uM) was 0.820; in experiment [1] (dose 0.40 uM) it was 0.327; in experiment [1] (dose 2.00 uM) it was 0.304; in experiment [1] (dose 10.00 uM), −2.027. In addition, the Dose.FC.LYZ.S is recorded as 0.207 log2 fold change in experiment [2] (dose 0.08 uM), 0.142 log2 fold change in experiment [2] (dose 0.40 uM), 0.044 log2 fold change in experiment [2] (dose 2.00 uM) and −0.283 log2 fold change in experiment [2] (dose 10.00 uM). The Dose.FC.CTG in the experiment on ENR+CD organoids (dose 0.08 uM) was 0.328 log2 fold change; with ENR+CD organoids (dose 0.40 uM), 0.333 log2 fold change; with ENR+CD organoids (dose 2.00 uM) it was 0.071 log2 fold change; in the experiment on ENR+CD organoids (dose 10.00 uM), −1.200 log2 fold change. Moreover, the “Z.CTG (standard z score)” value with ENR+CD organoids (dose 0.08 uM) is reported as 0.784; with ENR+CD organoids (dose 0.40 uM), 0.796; in the experiment on ENR+CD organoids (dose 2.00 uM) it was 0.169; with ENR+CD organoids (dose 10.00 uM) it was −2.866.
Consider `CN1CC(=O)N2[C@H](c3ccc4c(c3)OCO4)c3[nH]c4ccccc4c3C[C@@H]2C1=O` [Tadalafil], for which the Dose.FC.LYZ.NS was 0.102 log2 fold change in experiment [1] (setting [3]), 0.027 log2 fold change in experiment [1] (setting [4]), 0.130 log2 fold change in experiment [1] (setting [5]) and 0.061 log2 fold change in experiment [1] (setting [6]). Moreover, the Z.LYZ.NS was found to be 0.887 in experiment [1] (dose 0.08 uM), 0.233 in experiment [1] (dose 0.40 uM), 1.128 in experiment [1] (dose 2.00 uM) and 0.534 in experiment [1] (dose 10.00 uM). Moreover, the Dose.FC.LYZ.S in experiment [2] (setting [3]) is reported as 0.091 log2 fold change; in experiment [2] (setting [4]), 0.095 log2 fold change; in experiment [2] (setting [5]), 0.223 log2 fold change; in experiment [2] (setting [6]), 0.148 log2 fold change. In addition, the Dose.FC.CTG in the experiment with ENR+CD organoids (setting [3]) is −0.019 log2 fold change; in the experiment on ENR+CD organoids (setting [4]), 0.361 log2 fold change; in the experiment on ENR+CD organoids (setting [5]), 0.436 log2 fold change; in the experiment on ENR+CD organoids (setting [6]), 0.270 log2 fold change.
`COc1cc2c(N3CCN(C(=O)Nc4ccc(OC(C)C)cc4)CC3)ncnc2cc1OCCCN1CCCCC1` [Tandutinib (MLN518)]: the Dose.FC.LYZ.NS in experiment [1] (setting [3]) came out at 0.095 log2 fold change; in experiment [1] (setting [4]), 0.122 log2 fold change; in experiment [1] (setting [5]), 0.116 log2 fold change; in experiment [1] (setting [6]), 0.047 log2 fold change. The Z.LYZ.NS in experiment [1] (dose 0.08 uM) is 0.828; in experiment [1] (dose 0.40 uM), 1.066; in experiment [1] (dose 2.00 uM) it was 1.012; in experiment [1] (dose 10.00 uM) it was 0.407. Also, the Dose.FC.LYZ.S was determined as 0.145 log2 fold change in experiment [2] (setting [3]), 0.178 log2 fold change in experiment [2] (setting [4]), 0.093 log2 fold change in experiment [2] (setting [5]) and 0.100 log2 fold change in experiment [2] (setting [6]). The Dose.FC.CTG with ENR+CD organoids (setting [3]) worked out at 0.585 log2 fold change; in the experiment on ENR+CD organoids (setting [4]), 0.354 log2 fold change; in the experiment with ENR+CD organoids (setting [5]), 0.358 log2 fold change; in the experiment with ENR+CD organoids (setting [6]), 0.586 log2 fold change. Further, the Z.CTG is 1.397 in the experiment on ENR+CD organoids (dose 0.08 uM), 0.845 in the experiment on ENR+CD organoids (dose 0.40 uM), 0.856 in the experiment with ENR+CD organoids (dose 2.00 uM) and 1.401 in the experiment on ENR+CD organoids (dose 10.00 uM).
Regarding `COc1cc2c(cc1OC)CN(CCc1ccc(NC(=O)c3cc(OC)c(OC)cc3NC(=O)c3cnc4ccccc4c3)cc1)CC2` [Tariquidar], the Dose.FC.LYZ.NS was 0.053 log2 fold change in experiment [1] (setting [3]), 0.037 log2 fold change in experiment [1] (setting [4]), 0.031 log2 fold change in experiment [1] (setting [5]) and 0.034 log2 fold change in experiment [1] (setting [6]). Also, the Z.LYZ.NS in experiment [1] (dose 0.08 uM) is 0.465; in experiment [1] (dose 0.40 uM), 0.326; in experiment [1] (dose 2.00 uM) it was 0.270; in experiment [1] (dose 10.00 uM), 0.292. For the same compound, the Dose.FC.LYZ.S in experiment [2] (setting [3]) was determined as 0.040 log2 fold change; in experiment [2] (setting [4]), 0.073 log2 fold change; in experiment [2] (setting [5]) it was 0.059 log2 fold change; in experiment [2] (setting [6]), 0.019 log2 fold change. In addition, the Dose.FC.CTG with ENR+CD organoids (setting [3]) is reported as −0.117 log2 fold change; in the experiment on ENR+CD organoids (setting [4]), 0.054 log2 fold change; in the experiment on ENR+CD organoids (setting [5]) it was 0.376 log2 fold change; with ENR+CD organoids (setting [6]), 0.227 log2 fold change.
As to `CCCc1nc2c(C)cc(-c3nc4ccccc4n3C)cc2n1Cc1ccc(-c2ccccc2C(=O)O)cc1` [Telmisartan], the Dose.FC.LYZ.NS was 0.139 log2 fold change in experiment [1] (setting [3]), 0.129 log2 fold change in experiment [1] (setting [4]), 0.057 log2 fold change in experiment [1] (setting [5]) and −0.007 log2 fold change in experiment [1] (setting [6]). In addition, the Z.LYZ.NS in experiment [1] (dose 0.08 uM) is on record as 1.213; in experiment [1] (dose 0.40 uM) it was 1.124; in experiment [1] (dose 2.00 uM) it was 0.499; in experiment [1] (dose 10.00 uM), −0.060. The Dose.FC.LYZ.S in experiment [2] (setting [3]) is given as 0.140 log2 fold change; in experiment [2] (setting [4]), 0.106 log2 fold change; in experiment [2] (setting [5]), 0.063 log2 fold change; in experiment [2] (setting [6]), −0.003 log2 fold change. The Dose.FC.CTG with ENR+CD organoids (setting [3]) is 0.134 log2 fold change; in the experiment on ENR+CD organoids (setting [4]), 0.244 log2 fold change; with ENR+CD organoids (setting [5]) it was 0.064 log2 fold change; in the experiment on ENR+CD organoids (setting [6]) it was 0.230 log2 fold change.
In the case of `CO[C@H]1C[C@@H]2CC[C@@H](C)[C@@](O)(O2)C(=O)C(=O)N2CCCC[C@H]2C(=O)O[C@H]([C@H](C)C[C@@H]2CC[C@@H](OC(=O)C(C)(CO)CO)[C@H](OC)C2)CC(=O)[C@H](C)/C=C(\C)[C@@H](O)[C@@H](OC)C(=O)[C@H](C)C[C@H](C)/C=C/C=C/C=C/1C` [Temsirolimus (CCI-779, NSC 683864)], the Dose.FC.LYZ.NS in experiment [1] (setting [3]) worked out at 0.091 log2 fold change; in experiment [1] (dose 0.40 uM), 0.088 log2 fold change; in experiment [1] (dose 2.00 uM) it was 0.172 log2 fold change; in experiment [1] (dose 10.00 uM), 0.119 log2 fold change. Further, the Z.LYZ.NS in experiment [1] (dose 0.08 uM) is 0.790. Besides, the “Z.LYZ.NS (standard z score)” value in experiment [1] (dose 0.40 uM) is on record as 0.763; in experiment [1] (dose 2.00 uM), 1.494; in experiment [1] (dose 10.00 uM) it was 1.035. Also, the Dose.FC.LYZ.S is on record as 0.082 log2 fold change in experiment [2] (setting [3]), 0.152 log2 fold change in experiment [2] (dose 0.40 uM), 0.132 log2 fold change in experiment [2] (dose 2.00 uM) and 0.153 log2 fold change in experiment [2] (dose 10.00 uM). Also, the Dose.FC.CTG with ENR+CD organoids (setting [3]) worked out at 0.514 log2 fold change; in the experiment with ENR+CD organoids (dose 0.40 uM), 0.583 log2 fold change; with ENR+CD organoids (dose 2.00 uM), 0.578 log2 fold change; with ENR+CD organoids (dose 10.00 uM), 0.200 log2 fold change. In the experiment on ENR+CD organoids (dose 0.08 uM), this compound gave a Z.CTG of 1.228. Further, the “Z.CTG (standard z score)” value turned out to be 1.393 with ENR+CD organoids (dose 0.40 uM), 1.382 with ENR+CD organoids (dose 2.00 uM) and 0.478 with ENR+CD organoids (dose 10.00 uM).
For `CC(C)OC(=O)OCOP(=O)(CO[C@H](C)Cn1cnc2c(N)ncnc21)OCOC(=O)OC(C)C` [Tenofovir Disoproxil Fumarate], the Dose.FC.LYZ.NS in experiment [1] (dose 0.08 uM) is recorded as 0.055 log2 fold change; in experiment [1] (dose 0.40 uM), −0.051 log2 fold change; in experiment [1] (dose 2.00 uM), −0.079 log2 fold change; in experiment [1] (dose 10.00 uM), −0.185 log2 fold change. The “Z.LYZ.NS (standard z score)” value is recorded as 0.475 in experiment [1] (dose 0.08 uM), −0.442 in experiment [1] (dose 0.40 uM), −0.689 in experiment [1] (dose 2.00 uM) and −1.614 in experiment [1] (dose 10.00 uM). Further, the Dose.FC.LYZ.S in experiment [2] (dose 0.08 uM) is on record as 0.208 log2 fold change; in experiment [2] (dose 0.40 uM), 0.086 log2 fold change; in experiment [2] (dose 2.00 uM), −0.065 log2 fold change; in experiment [2] (dose 10.00 uM), −0.267 log2 fold change. Moreover, the Dose.FC.CTG in the experiment on ENR+CD organoids (dose 0.08 uM) is 0.072 log2 fold change; in the experiment with ENR+CD organoids (dose 0.40 uM), −0.002 log2 fold change; with ENR+CD organoids (dose 2.00 uM), −0.158 log2 fold change; with ENR+CD organoids (dose 10.00 uM) it was −0.433 log2 fold change.
Turning to `C[C@H](Cn1cnc2c(N)ncnc21)OCP(=O)(O)O` [Tenofovir], the Dose.FC.LYZ.NS in experiment [1] (dose 0.08 uM) is listed as 0.077 log2 fold change; in experiment [1] (dose 0.40 uM), −0.076 log2 fold change; in experiment [1] (dose 2.00 uM) it was −0.132 log2 fold change; in experiment [1] (dose 10.00 uM) it was −0.218 log2 fold change. Besides, the “Z.LYZ.NS (standard z score)” value was 0.673 in experiment [1] (dose 0.08 uM), −0.662 in experiment [1] (dose 0.40 uM), −1.153 in experiment [1] (dose 2.00 uM) and −1.899 in experiment [1] (dose 10.00 uM). Also, the Dose.FC.LYZ.S in experiment [2] (dose 0.08 uM) was 0.045 log2 fold change; in experiment [2] (dose 0.40 uM), −0.080 log2 fold change; in experiment [2] (dose 2.00 uM), −0.171 log2 fold change; in experiment [2] (dose 10.00 uM), −0.271 log2 fold change. Further, the Dose.FC.CTG is 0.019 log2 fold change in the experiment on ENR+CD organoids (dose 0.08 uM), −0.084 log2 fold change in the experiment with ENR+CD organoids (dose 0.40 uM), −0.129 log2 fold change with ENR+CD organoids (dose 2.00 uM) and −0.337 log2 fold change in the experiment on ENR+CD organoids (dose 10.00 uM). Besides, the “Z.CTG (standard z score)” value is 0.045 with ENR+CD organoids (dose 0.08 uM), −0.200 in the experiment with ENR+CD organoids (dose 0.40 uM), −0.308 in the experiment with ENR+CD organoids (dose 2.00 uM) and −0.804 in the experiment on ENR+CD organoids (dose 10.00 uM).
